Active and inactive are the calls of the source.
How the values were obtained:
[1] = system: A549; assay: viability loss in A549 cells – cell-based, plate reader, cherry-pick samples, cytotoxicity control, dose response (AID 687028); type: functional; conditions: Homo sapiens
[2] = system: Vero; assay: viability loss in Vero cells – cell-based, plate reader, cherry-pick samples, cytotoxicity control, dose response (AID 687020); type: functional; conditions: Chlorocebus sabaeus
[3] = biological target: Beta-galactosidase (Escherichia coli, UniProt Q8VNN2); assay: Dose response counterscreen for EBI2 assay utilizing the enzyme, b-galactosidase.; type: functional
Beta-galactosidase, sequence (Q8VNN2 whole entry): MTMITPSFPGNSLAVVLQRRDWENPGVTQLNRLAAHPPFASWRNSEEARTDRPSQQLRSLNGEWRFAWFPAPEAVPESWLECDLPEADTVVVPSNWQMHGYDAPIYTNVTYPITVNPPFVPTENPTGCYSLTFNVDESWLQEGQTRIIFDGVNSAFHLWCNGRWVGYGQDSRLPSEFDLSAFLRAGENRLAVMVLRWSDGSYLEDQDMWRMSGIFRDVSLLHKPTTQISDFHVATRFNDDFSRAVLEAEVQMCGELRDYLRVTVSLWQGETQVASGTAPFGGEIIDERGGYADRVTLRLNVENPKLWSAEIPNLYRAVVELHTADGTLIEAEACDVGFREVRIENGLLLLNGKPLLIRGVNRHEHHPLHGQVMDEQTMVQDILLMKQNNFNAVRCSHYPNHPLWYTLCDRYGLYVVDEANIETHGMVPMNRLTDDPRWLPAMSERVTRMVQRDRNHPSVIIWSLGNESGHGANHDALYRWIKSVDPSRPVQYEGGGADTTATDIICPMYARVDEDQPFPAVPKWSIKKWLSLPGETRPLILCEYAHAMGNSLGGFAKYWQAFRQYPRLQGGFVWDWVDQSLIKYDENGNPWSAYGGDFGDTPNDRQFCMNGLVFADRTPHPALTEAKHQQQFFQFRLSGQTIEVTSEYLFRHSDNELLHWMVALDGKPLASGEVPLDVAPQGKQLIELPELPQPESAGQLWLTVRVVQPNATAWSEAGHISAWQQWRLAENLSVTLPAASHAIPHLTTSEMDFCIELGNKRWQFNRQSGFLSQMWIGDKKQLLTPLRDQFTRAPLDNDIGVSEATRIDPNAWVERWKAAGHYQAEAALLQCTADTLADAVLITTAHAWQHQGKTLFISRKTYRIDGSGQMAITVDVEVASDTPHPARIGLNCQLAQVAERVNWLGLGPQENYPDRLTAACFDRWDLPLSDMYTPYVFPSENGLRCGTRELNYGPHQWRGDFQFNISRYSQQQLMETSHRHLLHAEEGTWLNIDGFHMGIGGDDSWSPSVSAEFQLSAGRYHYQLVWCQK

[4] = biological target: T1, Methionyl-tRNA synthetase, putative (Trypanosoma brucei brucei, UniProt Q38C91); type: functional, Trypanosoma brucei brucei strain 927/4 GUTat10.1
T1 sequence (Q38C91 whole entry): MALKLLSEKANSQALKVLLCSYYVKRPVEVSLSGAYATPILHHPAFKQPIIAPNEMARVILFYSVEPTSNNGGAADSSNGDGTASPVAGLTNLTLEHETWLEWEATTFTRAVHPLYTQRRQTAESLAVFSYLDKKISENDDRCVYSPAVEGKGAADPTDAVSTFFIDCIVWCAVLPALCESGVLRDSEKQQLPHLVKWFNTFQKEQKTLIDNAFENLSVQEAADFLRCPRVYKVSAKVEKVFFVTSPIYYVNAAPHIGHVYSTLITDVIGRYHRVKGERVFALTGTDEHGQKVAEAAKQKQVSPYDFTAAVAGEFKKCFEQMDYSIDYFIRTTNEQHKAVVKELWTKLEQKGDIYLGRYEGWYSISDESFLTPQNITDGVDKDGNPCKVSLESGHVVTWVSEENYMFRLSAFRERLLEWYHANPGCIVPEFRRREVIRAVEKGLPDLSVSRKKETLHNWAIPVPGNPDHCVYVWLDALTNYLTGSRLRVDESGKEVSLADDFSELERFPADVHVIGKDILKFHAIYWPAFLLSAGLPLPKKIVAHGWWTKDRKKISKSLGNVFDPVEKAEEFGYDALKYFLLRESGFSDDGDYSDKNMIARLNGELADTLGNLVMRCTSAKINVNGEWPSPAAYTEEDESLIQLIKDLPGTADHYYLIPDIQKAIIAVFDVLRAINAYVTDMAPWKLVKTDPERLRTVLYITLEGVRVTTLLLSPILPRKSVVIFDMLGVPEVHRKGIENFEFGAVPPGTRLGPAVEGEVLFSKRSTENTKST

[5] = Counterscreen for inhibitors of Trypanosoma brucei methionyl tRNA synthetase (MetRS): Luminescence-based cell-based high throughput dose response assay to identify compounds that are cytotoxic to Jurkat human T lymphocyte cells.; type: functional
[6] = biological target: T1, Methionyl-tRNA synthetase, putative; type: functional, Trypanosoma brucei brucei strain 927/4 GUTat10.1; remark: listed apart in the source
[7] = viability loss in HepG2 hepatoma cells – cell-based, ATP luminescence, cherry-pick, activator set 2, cytotoxicity control, dose response (AID 1053143); type: functional
[8] = viability loss in CEM21 cells – cell-based, CellTiter-Glo luminescence, cherry-picked, cytotoxicity control for viral fusion inhibitor project, dose response (AID 652042); type: functional;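 further: potency for signal decrease meaning cytotoxicity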
[9] = blockers of HIV-1 ZM109 envelope-driven cell-cell fusion – HeLa effector, CEM target cells, luciferase, cherry-pick, dose response (AID 652058); type: functional, cell-based;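 further: luciferase signal from HIV-1 Env mediated cell-cell fusion of effector and target cells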
[10] = HIV-1 AD8 envelope cell-cell fusion blockers – cherry-pick, dose response (AID 652062); type: functional, cell-based;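 further: luciferase signal from cell-cell fusion driven by HIV-1 clade B AD8 Env; potency is for inhibitors of fusion seen as a drop in luminescence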
[11] = blockers of HIV-1 envelope-mediated cell-cell fusion – cherry-pick, dose response (AID 652057); type: functional, cell-based
[12] = off-target signal loss in HeLa-CEM21 co-culture – HeLa F-luc CTL cells, cherry-picked, counter-screen for HIV-1 Env fusion inhibitor project, dose response (AID 652040); type: functional, cell-based;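 further: potency for signal decrease marking cytotoxic or nonspecific inhibition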
[13] = toxicity toward HepG2 liver cells – cell-based, plate reader, cherry-pick, antagonist series, cytotoxicity control, dose response (AID 743416); type: functional
[14] = blockers of bursicon-stimulated LGR2 cAMP reporter – cell-based, HEK293, CRE-luciferase reporter, cherry pick, set 2, dose response (AID 743343); type: functional;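 further: transfected cells were stimulated with diluted bursicon conditioned medium after compound addition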
[15] = biological target: Paired box protein Pax-8 (Homo sapiens, UniProt Q06710); assay: PAX8 transcriptional activity inhibition in RMG-I – RMG-I cells, luciferase, cherry-pick, dose response (AID 687027); type: functional, cell-based;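 further: luciferase reporter driven by Pax8 target thyroperoxidase promoter measured by SteadyGlo luminescence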
Paired box protein Pax-8, sequence (Q06710 whole entry): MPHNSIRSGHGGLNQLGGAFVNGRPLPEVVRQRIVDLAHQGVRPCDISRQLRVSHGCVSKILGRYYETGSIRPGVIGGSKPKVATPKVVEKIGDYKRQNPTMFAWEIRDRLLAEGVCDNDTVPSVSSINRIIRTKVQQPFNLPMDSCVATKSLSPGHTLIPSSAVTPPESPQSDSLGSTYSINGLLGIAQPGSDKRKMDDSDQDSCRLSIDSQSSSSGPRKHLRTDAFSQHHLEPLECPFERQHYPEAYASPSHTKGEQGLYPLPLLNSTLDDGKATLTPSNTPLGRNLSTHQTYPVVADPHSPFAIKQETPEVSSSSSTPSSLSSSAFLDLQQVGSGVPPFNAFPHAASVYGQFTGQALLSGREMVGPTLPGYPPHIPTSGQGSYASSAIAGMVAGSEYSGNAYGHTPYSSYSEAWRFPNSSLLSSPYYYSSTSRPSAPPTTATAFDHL

[16] = A549 cell cytotoxicity, dose response, cytotoxicity control, plate reader, cherry-pick, antagonist series (AID 743412); type: functional, cell-based
[17] = general cell-killing toxicity readout – plate reader, dry powder samples, cytotoxicity control for PAX8 inhibitor project, dose response (AID 743021); type: functional, cell-based
[18] = blockade of melanocortin 4 receptor signaling – cell-based, plate reader, cherry pick, counter-screen for LGR2 antagonist project, dose response (AID 743444); type: functional;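 further: transfected HEK 293 cells stimulated with alpha-MSH peptide; potency of inhibitors of the alpha-MSH evoked signal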
[19] = viability loss in HEK293 cells – cell-based, plate reader, cherry-picked samples, cytotoxicity control, dose response (AID 743446); type: functional
[20] = activation of miR-122 Renilla sensor silencing – cell-based, Huh7 psiCHECK-miR122, Renilla luciferase, cherry-picked, dose response (AID 651956); type: functional;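 further: huh7 hepatoma cells stably carrying a psiCHECK-2 miR-122 sensor plasmid; renilla luciferase signal reporting endogenous miR-122 activity after 48 h compound exposure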
[21] = general mammalian cell viability loss – activator set, cherry-pick, cytotoxicity control for miR-122 modulator project, dose response (AID 720690); type: functional, cell-based;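 further: HEK293T human cells scored for general mammalian cytotoxicity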
[22] = biological target: Nuclear receptor subfamily 0 group B member 1 (Homo sapiens, UniProt P51843); type: functional, cell-based;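 further: HEK293T cells transfected with SF-1 and DAX-1 plus StAR promoter luciferase reporter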
Nuclear receptor subfamily 0 group B member 1, sequence (P51843 whole entry): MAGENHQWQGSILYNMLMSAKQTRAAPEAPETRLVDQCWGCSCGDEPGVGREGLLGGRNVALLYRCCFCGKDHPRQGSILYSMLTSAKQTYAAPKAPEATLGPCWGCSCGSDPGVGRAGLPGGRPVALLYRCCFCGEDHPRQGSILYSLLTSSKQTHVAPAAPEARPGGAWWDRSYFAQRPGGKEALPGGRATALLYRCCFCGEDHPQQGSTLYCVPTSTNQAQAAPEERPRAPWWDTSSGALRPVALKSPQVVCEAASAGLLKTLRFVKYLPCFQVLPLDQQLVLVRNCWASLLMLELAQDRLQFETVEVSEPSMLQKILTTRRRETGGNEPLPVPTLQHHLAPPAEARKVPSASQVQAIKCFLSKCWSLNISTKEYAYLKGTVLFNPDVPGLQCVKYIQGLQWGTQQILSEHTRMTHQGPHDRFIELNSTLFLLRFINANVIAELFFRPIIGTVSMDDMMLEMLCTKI

[23] = cells; type: functional, cell-based
[24] = biological target: T2, Histone-lysine N-methyltransferase NSD2 (Homo sapiens, UniProt O96028); type: biochemical
T2 sequence (O96028 whole entry): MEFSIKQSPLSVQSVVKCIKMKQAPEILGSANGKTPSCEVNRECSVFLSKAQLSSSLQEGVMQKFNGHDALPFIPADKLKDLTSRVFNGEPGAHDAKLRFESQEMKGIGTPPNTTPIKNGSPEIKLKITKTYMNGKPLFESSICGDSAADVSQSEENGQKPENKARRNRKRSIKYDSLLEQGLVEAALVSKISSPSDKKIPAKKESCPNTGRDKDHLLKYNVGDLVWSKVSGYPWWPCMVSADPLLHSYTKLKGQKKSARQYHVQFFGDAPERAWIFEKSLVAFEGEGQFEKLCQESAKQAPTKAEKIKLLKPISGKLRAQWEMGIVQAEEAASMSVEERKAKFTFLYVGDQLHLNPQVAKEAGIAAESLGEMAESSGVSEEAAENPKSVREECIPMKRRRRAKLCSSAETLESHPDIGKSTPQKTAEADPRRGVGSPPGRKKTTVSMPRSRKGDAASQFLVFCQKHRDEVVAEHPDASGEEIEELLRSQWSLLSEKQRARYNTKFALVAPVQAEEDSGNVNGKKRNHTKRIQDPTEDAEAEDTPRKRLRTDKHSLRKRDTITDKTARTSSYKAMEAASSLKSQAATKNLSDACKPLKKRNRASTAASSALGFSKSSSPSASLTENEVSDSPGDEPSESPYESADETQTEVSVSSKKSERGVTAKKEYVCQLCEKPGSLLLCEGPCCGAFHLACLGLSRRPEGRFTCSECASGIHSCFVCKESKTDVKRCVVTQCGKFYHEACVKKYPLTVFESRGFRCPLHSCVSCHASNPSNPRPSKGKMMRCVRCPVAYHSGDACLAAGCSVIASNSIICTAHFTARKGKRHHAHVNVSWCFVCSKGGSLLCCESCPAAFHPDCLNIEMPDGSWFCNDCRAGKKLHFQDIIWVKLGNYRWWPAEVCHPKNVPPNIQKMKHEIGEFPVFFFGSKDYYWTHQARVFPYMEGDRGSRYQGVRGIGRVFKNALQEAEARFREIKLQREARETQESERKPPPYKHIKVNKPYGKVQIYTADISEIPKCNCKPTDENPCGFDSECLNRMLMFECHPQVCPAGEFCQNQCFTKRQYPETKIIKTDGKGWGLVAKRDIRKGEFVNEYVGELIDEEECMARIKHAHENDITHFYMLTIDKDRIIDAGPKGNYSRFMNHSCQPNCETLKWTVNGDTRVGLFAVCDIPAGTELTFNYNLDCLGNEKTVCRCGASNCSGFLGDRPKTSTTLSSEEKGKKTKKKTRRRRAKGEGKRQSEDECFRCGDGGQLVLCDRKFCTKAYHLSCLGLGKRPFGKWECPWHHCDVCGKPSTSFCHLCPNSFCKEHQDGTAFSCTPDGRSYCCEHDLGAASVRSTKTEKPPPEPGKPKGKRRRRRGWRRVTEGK

[25] = OVCAR-3 cell viability loss – plate reader, dry powder samples, PAX8 inhibitor project, dose response (AID 743044); type: functional, cell-based
[26] = IGROV1 cell killing – plate reader, dry powder samples, PAX8 inhibitor project, dose response (AID 743043); type: functional, cell-based; conditions: IGROV-1
[27] = OVCAR8 cell viability loss – plate reader, dry powder samples, PAX8 project, dose response (AID 743197); type: functional, cell-based; conditions: OVCAR-8
[28] = viability loss in HeLa cells – cytotoxicity control for MgcRacGAP inhibitor project, dose response (AID 624300); type: functional
[29] = biological target: T3, Rac GTPase-activating protein 1 (Homo sapiens, UniProt Q9H0H5); assay: blockers of MgcRacGAP-driven Rac1 GTP hydrolysis – biochemical, ADP Hunter fluorescence, primary and confirmatory, confirmation (AID 624330); type: functional
T3 sequence (Q9H0H5 whole entry): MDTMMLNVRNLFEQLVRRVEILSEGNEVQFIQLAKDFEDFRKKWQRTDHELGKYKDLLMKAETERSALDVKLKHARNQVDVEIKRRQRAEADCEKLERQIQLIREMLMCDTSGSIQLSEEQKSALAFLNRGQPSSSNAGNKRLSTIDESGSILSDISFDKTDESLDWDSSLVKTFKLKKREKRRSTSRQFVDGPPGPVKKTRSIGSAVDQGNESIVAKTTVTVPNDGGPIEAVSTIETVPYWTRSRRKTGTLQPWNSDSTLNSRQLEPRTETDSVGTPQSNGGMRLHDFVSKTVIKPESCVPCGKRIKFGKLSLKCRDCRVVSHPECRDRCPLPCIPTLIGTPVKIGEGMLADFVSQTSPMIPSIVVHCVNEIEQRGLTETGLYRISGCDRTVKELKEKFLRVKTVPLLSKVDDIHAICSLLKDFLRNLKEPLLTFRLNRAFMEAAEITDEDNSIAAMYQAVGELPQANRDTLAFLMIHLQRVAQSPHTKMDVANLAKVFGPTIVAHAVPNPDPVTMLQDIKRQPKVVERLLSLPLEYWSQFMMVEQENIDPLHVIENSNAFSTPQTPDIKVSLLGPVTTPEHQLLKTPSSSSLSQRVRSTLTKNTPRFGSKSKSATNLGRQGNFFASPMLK

## CC1CCCN(CCOc2cccc(Oc3ccccc3)c2)C1 (centres undefined)
[1]
  AC50: 1.65 µM (active)
[2]
  AC50: 2.31 µM (active)

## O=C(COc1ccc(Cl)cc1)N1CCN(C/C=C/c2ccccc2)CC1
[3]
  IC50: > 80 µM (inactive)

## CCN1C(=O)C(CC(=O)Nc2ccc(F)cc2)N(CCc2ccc(OC)cc2)C1=S (centres undefined)
[4]
  IC50: 10.5 µM (inactive)
[5]
  IC50: 83.3 µM (inactive)
[6]
  IC50: 13.2 µM (inactive)

## CN1CCN(Cc2cc(Cl)c3cccnc3c2OC(=O)c2cccs2)CC1
[7]
  AC50: 26 µM (active)

## CN(C)C(=O)c1ccc(-c2cc3onc(-c4ccccc4)c3c(=O)n2C)cc1
[7]
  AC50: 26 µM (active)

## S=C(NCCc1ccccc1)N1Cc2cc(N3CCCCC3)ccc2-n2nncc2C1
[8]
  AC50: 60.7 µM (active)
[9]
  AC50: 9.8 µM (active)
[10]
  AC50: 9.73 µM (active)
[11]
  AC50: 5.34 µM (active)
[12]
  AC50: 7.92 µM (active)

## COc1cccc(-c2c[nH]c(C(O)c3cc(Cl)cc(Cl)c3)n2)c1 (centres undefined)
[4]
  IC50: 4.9 µM (active)
[5]
  IC50: 83.3 µM (inactive)
[6]
  IC50: 10.3 µM (inactive)

## Oc1nc2ccccc2n1C1CCN(C(CCc2ccccc2)c2nnnn2-c2ccc3c(c2)OCCO3)CC1 (centres undefined)
[13]
  AC50: 16.5 µM (active)
[14]
  AC50: 9.66 µM (active)
[15]
  AC50: 1.54 µM (active)
[16]
  AC50: 7.65 µM (active)
[17]
  AC50: 10.8 µM (active)
[18]
  AC50: 2.86 µM (active)
[19]
  AC50: 14.5 µM (active)

## COc1ccccc1NC(=O)N1CCCCN2[C@H](CO)[C@H](c3ccc(C#CC4CCCC4)cc3)[C@H]2C1
[20]
  AC50: 21.9 µM (active)
[21]
  AC50: 12.6 µM (active)

## Cc1ccccc1-c1nnc2n1N=C(c1ccc(O)c(O)c1)CS2
[22]
  IC50: > 67.6 µM (inactive)
[23]
  IC50: > 67.6 µM (inactive)
[24]
  AC50: > 20 µM (inactive)

## O=C(c1ccc(F)cc1)N1CC(=O)N2[C@@H](CO)[C@@H](c3ccc(C#Cc4ccc(F)cc4)cc3)[C@@H]2C1
[25]
  AC50: 7.81 µM (active)
[15]
  AC50: 9.4 µM (active)
[17]
  AC50: 2.16 µM (active)
[26]
  AC50: 23 µM (active)
[27]
  AC50: > 70 µM (inactive)

## CCOc1ccc(/C=N/NC(=O)NC23CC4CC(CC(C4)C2)C3)cc1O
[28]
  CC50: 100 µM (active)
[29]
  IC50: 148 µM (active)

## O/N=C/c1ccn(-c2ccc(Br)cc2)c1
[22]
  IC50: > 67.5 µM (inactive)
[23]
  IC50: > 67.5 µM (inactive)

## CCC1CN(S(=O)(=O)c2ccc3c(c2)NC(=O)CC(=O)N3)c2cc(Cl)ccc2O1 (centres undefined)
[1]
  AC50: 28.5 µM (active)
[2]
  AC50: 27.7 µM (active)

Source: ChEMBL document CHEMBL1201862, “PubChem BioAssay data set” (2004)
